Assay [1] has as its system A549 spheroids. Briefly: Multicellular tumour spheroids. The class given is cell-based, human. Here is the method: (§1) FIGS. 5A, 5B, 5C, 5D, 5E, 5F, 5G, 5H, 5I, 5J, 5K, 5L and 5M show how C75 disrupts or reduces the growth of HeLa, HCT116 and A549 spheroids. FIG. 5A) images show HeLa spheroids over time (3 days) before and after treatment with control (1 μM C87; n=10), 250 nM (n=6) or 500 nM (n=10) of C75. The scale bar is 100 μm. FIG. 5B) is a series images of HeLa spheroids after three days of treatment with control (500 nM C87) or 500 nM C75. The spheroids were stained for fluorescein diacetate (to detect live cells) and propidium iodide (to detect dead cells). […] The scale bar is 100 μm. FIG. 5C) is a line graph showing the change in spheroid area (μm^2) for each day and treatment as indicated. Bars show standard deviation and the asterisks are p<0.05 as determined by the student's t test. FIG. 5D) images show HeLa spheroids over 3 days before and after treatment with empty nanoparticles (control; n=3) or 250 nM of nanoparticle-encapsulated C75 (n=3). The scale bar is 100 μm. […] Bars show standard deviation and the asterisks are p<0.05 as determined by the student's t test. FIG. 5F) is a series of images of HCT116 spheroids treated with control (1 μM C87; n=10), 500 nM C75 (n=10) and 1 μM C75 (n=10). […] Bars show standard deviation and the asterisks are p<0.05 as determined by the student's t test. […] Bars show standard deviation and the asterisks are p<0.05 as determined by the student's t test. […]

In assay [2] the test system is HeLa spheroids. The experiment in a line: Multicellular tumour spheroids. The class given is cell-based, human. Here is the method:
as §1

In assay [3] the target is Purified free alpha and beta tubulin dimers (Homo sapiens, UniProt P07437+Q71U36). The experiment in a line: Microtubule polymerization in vitro. The class given is biochemical. Particulars: 35 minutes at 37° C., Mg2+ and GTP, 20% glycerol buffer. The protocol: FIG. 10 is a graph showing microtubule polymerization in vitro in the presence of 200 nM C75 or DMSO (control). Bars show SEM. Microtubules fail to polymerize in the presence of C75, but not in control samples, showing that tubulin could be a target of C75 in vitro.
Purified free alpha and beta tubulin dimers were added at a concentration of […] to a 20% glycerol buffer and allowed to polymerize in the presence of Mg^2+ and GTP for 35 minutes at 37° C. While DMSO had no effect on microtubule polymerization, 200 nM of C75 prevented polymerization. […] This supports that C75 binds tubulin at a different site compared to other microtubule-depolymerizing drugs.

In assay [4] the test system is HeLa, A549 and HCT116 cancer cells compared to HFF-1 non-cancer cells. The experiment in a line: Selective toxicity, high-throughput automated analysis. The class given is cell-based. To be noted: A549, HCT116 vs HFF-1. The protocol: FIG. 1A) is a line graph showing changes in the percentage of viable HFF-1, HeLa, A549 and HCT 116 cells after treatment with a range of C75 concentrations for 3 population doubling times (N=3). […] There were more rounded mitotic cells after C75 treatment in comparison to the control. FIG. 1C) is a line graph showing the percentage of HeLa and HFF1 cells in mitosis after treatment with various concentrations of C75 for 8 hours. The bars indicate standard deviation. FIG. 1D) is a series of images showing cells that were fixed and co-stained for tubulin (microtubules) and DAPI (DNA). Treatment of HeLa cells with 300 nM C75 caused the mitotic spindles to be disorganized, while they were not affected in HFF1 cells. […] The scale bar for the cells is 10 μm. […] FIG. 1F) is a cartoon schematic showing the key features of a metaphase cell.
The images in FIG. 1B) show fields of view of HeLa cells treated with (dimethyl sulfoxide) DMSO or 500 nM of C75. […] Higher concentrations of C75 caused spindle phenotypes in HFF1 cells, but they were quite different in comparison to HeLa cells (FIG. 1D).

SMILES strings stand for the structures.

`COc1ccc(S(=O)(=O)N2Cc3ccccc3-c3sc(Br)cc32)cc1` [Compound C75]: the effect on spheroids entry in assay [1] was “regress the growth”; in assay [2], “disrupt”. Moreover, the “concentration that prevented microtubule polymerization” value in assay [3] was found to be 200 nM. Further, in assay [4], the “toxicity in cancer cells compared to HFF-1 non-cancer cells” value is listed as “selectively cause toxicity”.

Source of the values: patent publication US20200276181A1, “THIENOISOQUINOLINES AND THEIR DERIVATIVES FOR TARGETING TUBULIN, CH-TOG, AURORA A KINASE, TPX2, CDK5RAP2 AND/OR ASPM” (VALORBEC, SEC, priority 2017, published 2020).
